Measurements taken from ChEMBL document CHEMBL3621092, “Lipid-conjugated Smac analogues” (Bioorg Med Chem Lett, 2015).

System: MDA-MB-231
Assay: Induction of apoptosis in human MDA-MB-231 cells assessed as increase in caspase-3/7 activity incubated for 24 hrs by luminescence based assay
Type: functional, cell-based
Conditions: not given

| Compound | Activity |
| --- | --- |
| CCCCCCCCCCCCCCCC(=O)N(CC(=O)NCCCC[C@H](NC(=O)[C@H](C)NC)C(=O)N1CCC[C@H]1C(=O)NC(c1ccccc1)c1ccccc1)CC(=O)NCCCC[C@H](NC(=O)[C@H](C)NC)C(=O)N1CCC[C@H]1C(=O)NC(c1ccccc1)c1ccccc1 | Dose-dependent effect |

System: not listed separately
Assay: Stability in mouse plasma incubated at 37 degC by LC/MS method
Type: ADME, cell-free
Conditions: read-out: Stability

| Compound | half-life [h] |
| --- | --- |
| CCCCCCCCCCCCCCCC(=O)N(CC(=O)NCCCC[C@H](NC(=O)[C@H](C)NC)C(=O)N1CCC[C@H]1C(=O)NC(c1ccccc1)c1ccccc1)CC(=O)NCCCC[C@H](NC(=O)[C@H](C)NC)C(=O)N1CCC[C@H]1C(=O)NC(c1ccccc1)c1ccccc1 | < 31 |

System: MDA-MB-231
Assay: Growth inhibition of human MDA-MB-231 cells assessed as reduction in cell viability incubated for 48 hrs by PrestoBlue dye based florescence assay
Type: functional
Conditions: MDA-MB-231, 48 h

| Compound | EC50 [µM] |
| --- | --- |
| CN[C@@H](C)C(=O)N[C@@H](CO)C(=O)N1CCC[C@H]1C(=O)NC(c1ccccc1)c1ccccc1 | > 100 |
| CN[C@@H](C)C(=O)N[C@@H](CCCCN)C(=O)N1CCC[C@H]1C(=O)NC(c1ccccc1)c1ccccc1 | > 100 |
| CN[C@@H](C)C(=O)N[C@@H](CS)C(=O)N1CCC[C@H]1C(=O)NC(c1ccccc1)c1ccccc1 | > 100 |
| CN[C@@H](C)C(=O)N[C@@H](CCCCNC(=O)CCCCCCC(=O)NCCCC[C@H](NC(=O)[C@H](C)NC)C(=O)N1CCC[C@H]1C(=O)NC(c1ccccc1)c1ccccc1)C(=O)N1CCC[C@H]1C(=O)NC(c1ccccc1)c1ccccc1 | > 100 |
| CN[C@@H](C)C(=O)N[C@@H](CCCCNC(=N)N)C(=O)N1CCC[C@H]1C(=O)NC(c1ccccc1)c1ccccc1 | > 100 |
| CN[C@@H](C)C(=O)N[C@@H](CCCCNC(=O)CNCC(=O)NCCCC[C@H](NC(=O)[C@H](C)NC)C(=O)N1CCC[C@H]1C(=O)NC(c1ccccc1)c1ccccc1)C(=O)N1CCC[C@H]1C(=O)NC(c1ccccc1)c1ccccc1 | > 100 |
| CN[C@@H](C)C(=O)N[C@@H](CSCc1cccc(Cc2cccc(CSC[C@H](NC(=O)[C@H](C)NC)C(=O)N3CCC[C@H]3C(=O)NC(c3ccccc3)c3ccccc3)c2)c1)C(=O)N1CCC[C@H]1C(=O)NC(c1ccccc1)c1ccccc1 | > 100 |
| CCCCCCCCCCCCCCCCCCCCCCCC(=O)NCCCC[C@H](NC(=O)[C@H](C)NC)C(=O)N1CCC[C@H]1C(=O)NC(c1ccccc1)c1ccccc1 | > 100 |
| CN[C@@H](C)C(=O)N[C@@H](CCCCNC(=O)NCCCC[C@H](NC(=O)[C@H](C)NC)C(=O)N1CCC[C@H]1C(=O)NC(c1ccccc1)c1ccccc1)C(=O)N1CCC[C@H]1C(=O)NC(c1ccccc1)c1ccccc1 | > 100 |
| CN[C@@H](C)C(=O)N[C@@H](CCCCNC(=O)OCC1c2ccccc2-c2ccccc21)C(=O)N1CCC[C@H]1C(=O)NC(c1ccccc1)c1ccccc1 | 19 |
| CN[C@@H](C)C(=O)N[C@@H](CSCC(=O)NCCNC(=O)CSC[C@H](NC(=O)[C@H](C)NC)C(=O)N1CCC[C@H]1C(=O)NC(c1ccccc1)c1ccccc1)C(=O)N1CCC[C@H]1C(=O)NC(c1ccccc1)c1ccccc1 | > 100 |

The next lines start with the values.

| EC50 [µM] | Compound |
| --- | --- |
| 52.4 | CN[C@@H](C)C(=O)N[C@@H](CSCCS(=O)(=O)CCSC[C@H](NC(=O)[C@H](C)NC)C(=O)N1CCC[C@H]1C(=O)NC(c1ccccc1)c1ccccc1)C(=O)N1CCC[C@H]1C(=O)NC(c1ccccc1)c1ccccc1 |
| 49.9 | CN[C@@H](C)C(=O)N[C@@H](CSSC(C)(C)C)C(=O)N1CCC[C@H]1C(=O)NC(c1ccccc1)c1ccccc1 |
| 34.8 | CN[C@@H](C)C(=O)N[C@@H](CCCCNC(=O)Nc1ccc(NC(=O)NCCCC[C@H](NC(=O)[C@H](C)NC)C(=O)N2CCC[C@H]2C(=O)NC(c2ccccc2)c2ccccc2)cc1)C(=O)N1CCC[C@H]1C(=O)NC(c1ccccc1)c1ccccc1 |
| 18.4 | CN[C@@H](C)C(=O)N[C@@H](CSCc1ccc(Oc2ccc(CSC[C@H](NC(=O)[C@H](C)NC)C(=O)N3CCC[C@H]3C(=O)NC(c3ccccc3)c3ccccc3)cc2)cc1)C(=O)N1CCC[C@H]1C(=O)NC(c1ccccc1)c1ccccc1 |
| 14.4 | CN[C@@H](C)C(=O)N[C@@H](CCCCNC(=O)Nc1ccc(Oc2ccc(NC(=O)NCCCC[C@H](NC(=O)[C@H](C)NC)C(=O)N3CCC[C@H]3C(=O)NC(c3ccccc3)c3ccccc3)cc2)cc1)C(=O)N1CCC[C@H]1C(=O)NC(c1ccccc1)c1ccccc1 |
| 11.3 | CCCCCCCCCCCCCCCCSCc1cc(CSC[C@H](NC(=O)[C@H](C)NC)C(=O)N2CCC[C@H]2C(=O)NC(c2ccccc2)c2ccccc2)cc(CSC[C@H](NC(=O)[C@H](C)NC)C(=O)N2CCC[C@H]2C(=O)NC(c2ccccc2)c2ccccc2)c1 |
| 9.7 | CN[C@@H](C)C(=O)N[C@@H](CCCCNC(=O)O[C@H]1CC[C@@]2(C)C(=CCC3C2CC[C@@]2(C)C3CC[C@@H]2[C@H](C)CCCC(C)C)C1)C(=O)N1CCC[C@H]1C(=O)NC(c1ccccc1)c1ccccc1 (some centres not stated) |
| 9.6 | CN[C@@H](C)C(=O)N[C@@H](CSCc1ccc(CSC[C@H](NC(=O)[C@H](C)NC)C(=O)N2CCC[C@H]2C(=O)NC(c2ccccc2)c2ccccc2)cc1)C(=O)N1CCC[C@H]1C(=O)NC(c1ccccc1)c1ccccc1 |
| 7.4 | CN[C@@H](C)C(=O)N[C@@H](CSCc1cccc(CSC[C@H](NC(=O)[C@H](C)NC)C(=O)N2CCC[C@H]2C(=O)NC(c2ccccc2)c2ccccc2)c1)C(=O)N1CCC[C@H]1C(=O)NC(c1ccccc1)c1ccccc1 |
| 4.3 | CCCCCCCCCCCCCCCC(=O)OCCN(CC(=O)NCCCC[C@H](NC(=O)[C@H](C)NC)C(=O)N1CCC[C@H]1C(=O)NC(c1ccccc1)c1ccccc1)CC(=O)NCCCC[C@H](NC(=O)[C@H](C)NC)C(=O)N1CCC[C@H]1C(=O)NC(c1ccccc1)c1ccccc1 |
| 4.2 | CCCCCCCCCCCCCCCC(=O)N(CC(=O)NCCCC[C@H](NC(=O)[C@H](C)NC)C(=O)N1CCC[C@H]1C(=O)NC(c1ccccc1)c1ccccc1)CC(=O)NCCCC[C@H](NC(=O)[C@H](C)NC)C(=O)N1CCC[C@H]1C(=O)NC(c1ccccc1)c1ccccc1 |
| 4 | CN[C@@H](C)C(=O)N[C@@H](CSCc1ccc(-c2ccc(CSC[C@H](NC(=O)[C@H](C)NC)C(=O)N3CCC[C@H]3C(=O)NC(c3ccccc3)c3ccccc3)cc2)cc1)C(=O)N1CCC[C@H]1C(=O)NC(c1ccccc1)c1ccccc1 |

System: MDA-MB-231
Assay: Induction of apoptosis in human MDA-MB-231 cells assessed as increase in caspase-3/7 activity incubated for 24 hrs by luminescence based assay relative to control
Type: functional
Conditions: not given

| Compound | fold change (FC) |
| --- | --- |
| CN[C@@H](C)C(=O)N[C@@H](CSCc1ccc(-c2ccc(CSC[C@H](NC(=O)[C@H](C)NC)C(=O)N3CCC[C@H]3C(=O)NC(c3ccccc3)c3ccccc3)cc2)cc1)C(=O)N1CCC[C@H]1C(=O)NC(c1ccccc1)c1ccccc1 | 2.7 |
| CN[C@@H](C)C(=O)N[C@@H](CCCCNc1cc(NCCCC[C@H](NC(=O)[C@H](C)NC)C(=O)N2CCC[C@H]2C(=O)NC(c2ccccc2)c2ccccc2)c([N+](=O)[O-])cc1[N+](=O)[O-])C(=O)N1CCC[C@H]1C(=O)NC(c1ccccc1)c1ccccc1 | 2.7 |
